# Source: patent US4904672A, “Derivatives of 3-hydroxyazabenzo[b]thiophene useful as 5-lipoxygenase inhibitors” (Merck & Co., Inc., priority 1988, dated 1990)
# Test system: Brewer's yeast-induced hyperalgesia (pain response)
# Assay: Brewer's Yeast Hyperalgesia Assay in the rat
# Format: in vivo, rat (female Sprague-Dawley)
# Conditions: 3 mg/kg p.o.
# Procedure: In this assay, which is sensitive to inhibition by lipoxygenase and cyclooxygenase inhibitors, compounds of formula I reduced the pain response induced by Brewer's yeast (Table 1a).
# Groups of 10 female Sprague-Dawley rats, weighing 35-50 grams (Charles River Breeding Laboratories), were fasted overnight prior to testing. For each animal, 0.1 ml of the edema-inducing Brewer's yeast suspension (5% homogenate in physiological saline) was injected into the right hindpaw. Pain threshold was measured by applying pressure to the plantar surface of the hindpaw by means of a compressed air driven piston with a 2 mm. tip. Testing was carried out 3, 4, and 5 hours after the yeast injection. Compounds, prepared as homogenates in either 1% methylcellulose or aqueous vehicle, were administered orally 60 minutes before testing. A group of vehicle treated control animals was included in each experiment. Squeak pressure thresholds were measured and recorded for the compound and vehicle-treated groups of rats 3, 4, and 5 hours after administration of the Brewer's yeast (60 minutes after compound treatment). The estimation of analgesia was as follows: 1. the mean response pressure for the daily vehicle control group in the normal and inflammed foot was calculated; 2. for each compound treatment group, the number of animals with response pressures equal to or greater than 25 mm Hg was noted. These animals were considered to be analgesic.
row,Structure (SMILES),% Inhibition (yeast hyperalgesia) [%]
1,"COCC(=O)Oc1c(-c2ccccc2)sc2ncccc12 [R=(CO)CH2 OCH3, X1=H, X2=H]",50
2,"CC(=O)Oc1c(-c2ccccc2)sc2nc(Cl)ccc12 [R=(CO)CH3, X1=6-Cl, X2=H]",40
3,"COc1ccc2c(OC(C)=O)c(-c3ccccc3)sc2n1 [R=(CO)CH3, X1=6-OCH3, X2=H]",60
4,"CC(=O)Oc1c(-c2ccccc2)sc2ncccc12 [R=(CO)CH3, X1=H, X2=H, 7-aza-3-acetyloxy-2-phenyl-benzo[b]thiophene]",60
5,"CC(=O)Oc1c(-c2ccc(F)cc2)sc2ncccc12 [R=(CO)CH3, X1=H, X2=p-F, 7-aza-3-acetyloxy-2-(4-fluorophenyl)-benzo[b]thiophene]",70
6,"COc1ccc(-c2sc3ncccc3c2OC(C)=O)cc1 [R=(CO)CH3, X1=H, X2=p-OCH3]",10
7,"COc1ccc(-c2sc3ncccc3c2O)cc1 [R=H, X1=H, X2=p-OCH3]",60
